Series [1] is described as follows: AC voltammetry (capacitance-potential scans) of DOPC monolayer on hanging mercury drop electrode (HMDE) with analyte in electrolyte. As to the method:
The HMDE was based on using a capillary with a diameter of 0.1 mm so as to provide a surface area for the mercury drop about the same as the surface area of the mercury in the electrode in accordance with the invention.
Experiments were performed in 0.1M Kcl.

For series [2] the following is noted: for response of the electrode of the invention to the test compound (depression of capacitance peaks): 0.5 μmol dm^−3 in 0.1M KCl.
Method: The HMDE and the electrode of the invention were compared side-by-side in a static cell configuration. All experiments were carried out in 0.1 M potassium chloride solution. Measurements were taken at 75 Hz between −0.4 to −1.15 V with 4.95 mV rms at a scan rate of 5 mV
This Example compares a HMDE electrode with an electrode as produced in accordance with Example 3, both coated with a monolayer film of 1,2-dioleoyl-sn-glycero-3-phosphocholine (DOPC), new layers of which were deposited between consecutive scans. Experiments were performed in 0.1M Kcl. A negative going ‘forward’ potential scan was performed between −0.4 V and −1.15 V, and then followed immediately by a positive going ‘reverse’ scan from −1.15 V to −0.4 V with 4.95 mV rms at a scan rate of 5 mVs^−1.
The mark [3] stands for this setting: Pt/Hg electrode, DOPC monolayer, compared with HMDE.

Each structure is given as a SMILES string.

Turning to `CC(CN1c2ccccc2Sc2ccccc21)N(C)C` (stereo not drawn) [promethazine], the “response of the HMDE to the test compound” value in series [1] (0.5 μmol dm^−3 in 0.1M KCl) is recorded as “show response”. The “response of the electrode of the invention to the test compound (depression of capacitance peaks)” value in series [2] (setting [3]) is “stronger response (greater depression of the peaks)”.

Take `NC(=O)c1cc[n+](COC[n+]2ccccc2C=NO)cc1` [H16]: in series [1] (5 μmol dm^−3), the “response of the HMDE to the test compound” value is “large response”. Also, the “response of the electrode of the invention to the test compound (depression of capacitance peaks)” value in series [2] (setting [3]) is reported as “far greater response”. Besides, the “response of the electrode of the invention to the test compound” value in series [2] (5 μmol dm^−3, Pt/Hg electrode, DOPC monolayer, compared with HMDE) is “slightly larger response”.

With `CN(C)CCCN1c2ccccc2Sc2ccc(Cl)cc21` [chlorpromazine], the “sensitivity converted to ppb” value in series [2] (assuming a density for the solution of 1 g per ml) is on record as “approximately 18 ppb”.
